Results as given in PMC9300104 (2021).

Tests used:
[1] = system: Gdn13 wt (P2 wild-type, ACGG loop) (RNA, riboswitch) GGGGACGGCCCCA; test: 1H-1D NMR titration; settings: 5 mM Mg2+, 50 mM KCl; 25 mM potassium phosphate, pH 6.2, room temperature; KD not detected; up to 8 mM Gdm+ (Table 2)
[2] = system: Gdn13 G44A (RNA, riboswitch) GGGGACGACCCCA; test: 1H-1D NMR, chemical shift perturbation; settings: 5 mM Mg2+, 50 mM KCl; 25 mM potassium phosphate, pH 6.2, room temperature, 20 μM RNA, 1 mM Gdm+
[3] = system: Gdn49 wt (aptamer wild-type, AG) (RNA, riboswitch) GGUUUGCAGGACGACCUGCAAACGCCUCUUUUCACCGGGGACGGCCCCA; test: 1H-1D NMR titration, U17 imino, Hill fit; settings: 5 mM Mg2+, 50 mM KCl; 25 mM potassium phosphate, pH 6.2, room temperature, 50 μM RNA, Hill n 1.10; no binding without Mg2+
[4] = system: Gdn23 wt (P1 wild-type, ACGA loop) (RNA, riboswitch) GGUUUGCAGGACGACCUGCAAAC; test: 1H-1D NMR titration, U17 imino, Hill fit; settings: 5 mM Mg2+, 50 mM KCl; 25 mM potassium phosphate, pH 6.2, room temperature, 50 μM RNA, Hill n 1.16
[5] = system: Gdn49 P1mut (A14G, GG) (RNA, riboswitch) GGUUUGCAGGACGGCCUGCAAACGCCUCUUUUCACCGGGGACGGCCCCA; test: 1H-1D NMR titration, U17 imino, Hill fit; settings: 5 mM Mg2+, 50 mM KCl; 25 mM potassium phosphate, pH 6.2, room temperature, 50 μM RNA, Hill n 1.35
[6] = system: Gdn49 P2mut (G44A, AA) (RNA, riboswitch) GGUUUGCAGGACGACCUGCAAACGCCUCUUUUCACCGGGGACGACCCCA; test: 1H-1D NMR titration, U17 imino, Hill fit; settings: 5 mM Mg2+, 50 mM KCl; 25 mM potassium phosphate, pH 6.2, room temperature, 50 μM RNA, Hill n 1.01; two bound signals summed
[7] = system: Gdn49 P1P2mut (A14G, G44A, GA) (RNA, riboswitch) GGUUUGCAGGACGGCCUGCAAACGCCUCUUUUCACCGGGGACGACCCCA; test: 1H-1D NMR titration, U17 imino, Hill fit; settings: 5 mM Mg2+, 50 mM KCl; 25 mM potassium phosphate, pH 6.2, room temperature, 50 μM RNA, Hill n 1.38

How did the binding [1] turn out when `N=C(N)N` was run?
The binding was “no”.

And the binding [2]?
Its binding is “yes”.

And the KD [3]?
The KD was 133.4 ± 3.9 µM.

What about the KD [4] of the same compound?
The KD was 197.4 ± 8.8 µM.

And the KD [5]?
Its KD is 264.3 ± 27.8 µM.

What about the KD [6] of the same compound?
The KD was 58.9 ± 8.1 µM.

And the KD [7]?
The KD was 165.0 ± 14.3 µM.
